Peptide text beside a SMILES is read from it.
System: Balb/3T3 cells
Assay: Fibroblast proliferation promoting activity (3H-thymidine incorporation)
Format: cell-based
Details: Balb/3T3 fibroblasts; for Incorporated 3H-thymidine: 15 h incubation then 6 h 3H-thymidine, mean ± SD, 4 cases per group
Experimental: Fibroblast cell strains, Balb/3T3 cells (purchased from ATCC) were inoculated into a 96-well culture plate at-5×10^3 cells/well, 100 μl of 10% calf serum-containing Dulbecco Modified Eagle Medium (hereinafter referred to as DME) was added and incubated at. 37 uC for 24 hours in an incubator. Then, the culture medium was removed and the cells were washed. One hundred μl of lowered serum medium (0.2% calf serum-containing DME) Was added to the wells and incubation was continued for another 3 days. L-lysyl-glycyl-L-histidine obtained in Example 1 was added thereto at 10 μl/well and incubation was performed for 15 hours. The culture medium contains a trace amount of Cu2+, and a part of L-lysyl-glycyl-L-histidine may form copper complexes. The 3H-thymidine was added to be 74 KBq/ml and incubation was performed for 6 hours. After completion of the incubation, the medium was removed, the cells were collected and the amount of 3H-thymidine incorporated in the cells was determined.

NCCCC[C@H](N)C(=O)NCC(=O)N[C@@H](Cc1c[nH]cn1)C(=O)O [L-lysyl-glycyl-L-histidine] (H-Lys-Gly-His-OH)
cell proliferation promoting activity (10^-6 to 10^-3 M, conclusion from Table 1): dose-dependent cell proliferation promoting activity | Incorporated 3H-thymidine (Dose 10^-3 M): 7719.5 ± 1246.8 cpm | Incorporated 3H-thymidine (Dose 10^-4 M): 4889.8 ± 495.1 cpm | Incorporated 3H-thymidine (Dose 10^-5 M): 1371.8 ± 249.1 cpm | Incorporated 3H-thymidine (Dose 10^-6 M): 1406.5 ± 470.5 cpm
